The source of these data is patent publication US7601847B2, “Preparation and purification of 4-(indazol-3-yl)phenols” (Wyeth, priority 2004, dated 2009).

Values after ≈ are worked out from the molar mass of the structure shown.

A short description of this data set: relative solubility in a mixture of methanol and water. It is filed as physicochemical. Particulars: mixture of methanol and water (57:43 v/v); for solubility: methanol/water mixture (57:43 v/v), aqueous with cosolvent or surfactant or cyclodextrin.

Regarding `C=CCn1nc(-c2ccc(O)cc2O)c2cccc(C(F)(F)F)c21` [I, 4-[1-allyl-7-(trifluoromethyl)-1H-indazol-3-yl]benzene-1,3-diol], the solubility is 6 mg/mL (≈ 17.9 mM). `C=CCn1nc2c(C(F)(F)F)cccc2c1-c1ccc(O)cc1O` [VI]: the solubility is 140 mg/mL (≈ 419 mM) and the “difference in solubility in favor of the impurity (VI vs compound I)” value is reported as 20 ×.

Broadly, the solubility is the dissolved amount per volume that the medium holds.
